Data taken from patent US10316049B2, “Tank-binding kinase inhibitor compounds” (Gilead Sciences, Inc., priority 2015, dated 2019).
One block for each compound: values may come before it.

How the values were obtained:
[1] = molecular target: T1, TBK1 (Homo sapiens, UniProt Q9UHD2); experiment: TR-FRET enzymatic activity assay, TBK1; type: biochemical; note: full length recombinant TBK1 at 2.5 nM
T1 construct: TBK1 and IKKε were expressed and purified as full length recombinant proteins; made in house
T1 sequence (Q9UHD2 1-729): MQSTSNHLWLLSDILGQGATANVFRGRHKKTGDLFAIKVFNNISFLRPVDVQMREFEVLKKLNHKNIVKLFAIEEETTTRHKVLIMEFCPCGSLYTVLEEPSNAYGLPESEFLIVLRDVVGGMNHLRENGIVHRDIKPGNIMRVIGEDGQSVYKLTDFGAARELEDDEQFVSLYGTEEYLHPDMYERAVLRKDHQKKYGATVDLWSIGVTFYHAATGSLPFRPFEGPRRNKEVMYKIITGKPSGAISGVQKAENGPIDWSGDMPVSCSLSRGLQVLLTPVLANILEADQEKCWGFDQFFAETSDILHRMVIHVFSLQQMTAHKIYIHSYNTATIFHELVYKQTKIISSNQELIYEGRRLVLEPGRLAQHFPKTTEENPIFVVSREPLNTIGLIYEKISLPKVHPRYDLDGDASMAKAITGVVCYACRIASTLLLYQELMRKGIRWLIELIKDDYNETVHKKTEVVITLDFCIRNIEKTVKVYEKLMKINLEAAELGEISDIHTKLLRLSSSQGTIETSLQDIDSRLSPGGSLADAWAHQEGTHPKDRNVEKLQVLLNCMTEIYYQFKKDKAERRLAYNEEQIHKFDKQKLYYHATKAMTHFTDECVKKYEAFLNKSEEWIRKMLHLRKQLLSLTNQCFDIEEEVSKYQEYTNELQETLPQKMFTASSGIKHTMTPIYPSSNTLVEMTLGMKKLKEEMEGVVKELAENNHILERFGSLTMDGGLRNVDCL
Outline: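 Full-length recombinant enzymes phosphorylated a biotinylated Ser/Thr peptide for 240 min at 25 °C, stopped with EDTA. Phosphopeptide detected by TR-FRET (streptavidin XL665, Eu-cryptate anti-phospho antibody). IC50 from four-parameter fits normalized to 1 μM staurosporine and DMSO controls, as geometric means of at least four determinations.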

[2] = molecular target: T2, IKKε (Homo sapiens, UniProt Q14164); experiment: TR-FRET enzymatic activity assay, IKKε; type: biochemical; settings: read-out: IKKϵ IC50; note: full length recombinant IKKε at 0.3 nM
T2 construct: TBK1 and IKKε were expressed and purified as full length recombinant proteins; made in house
T2 sequence (Q14164 1-716): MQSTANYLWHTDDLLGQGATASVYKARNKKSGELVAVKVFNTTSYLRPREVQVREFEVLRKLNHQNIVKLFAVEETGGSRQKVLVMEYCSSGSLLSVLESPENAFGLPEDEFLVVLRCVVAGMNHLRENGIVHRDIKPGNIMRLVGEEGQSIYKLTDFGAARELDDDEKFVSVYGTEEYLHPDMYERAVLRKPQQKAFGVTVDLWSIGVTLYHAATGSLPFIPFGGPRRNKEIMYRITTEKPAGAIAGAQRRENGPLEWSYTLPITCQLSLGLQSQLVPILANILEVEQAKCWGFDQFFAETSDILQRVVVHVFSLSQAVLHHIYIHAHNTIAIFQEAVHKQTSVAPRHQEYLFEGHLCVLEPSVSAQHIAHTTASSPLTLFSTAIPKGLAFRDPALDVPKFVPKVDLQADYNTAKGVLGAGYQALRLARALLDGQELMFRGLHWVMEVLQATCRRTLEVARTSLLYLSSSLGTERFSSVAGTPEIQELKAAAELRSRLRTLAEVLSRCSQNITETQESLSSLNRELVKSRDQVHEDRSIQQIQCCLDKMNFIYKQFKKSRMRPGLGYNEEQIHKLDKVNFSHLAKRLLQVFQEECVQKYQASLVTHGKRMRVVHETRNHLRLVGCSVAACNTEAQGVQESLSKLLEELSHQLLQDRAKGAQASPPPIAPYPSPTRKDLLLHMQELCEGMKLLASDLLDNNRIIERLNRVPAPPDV
Outline: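 Full-length recombinant IKKε phosphorylated a biotinylated Ser/Thr peptide for 240 min at 25 °C; EDTA stop. Phospho-peptide detected by TR-FRET with streptavidin-XL665 (125 nM) and Eu-cryptate anti-phospho antibody. Normalised to staurosporine and DMSO controls; IC50 from four-parameter fit, geometric mean of ≥4 runs.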

SMILES: N#Cc1cc(-c2ccnc(NC(=O)[C@@H]3C[C@H]3F)c2)ccc1O[C@H]1CCN(C(=O)CO)C[C@H]1F [Example 62, (1S,2R)—N-(4-(3-cyano-4-(((3R,4S)-3-fluoro-1-(2-hydroxyacetyl)piperidin-4-yl)oxy)phenyl)pyridin-2-yl)-2-fluorocyclopropanecarboxamide]
IC50 [1]: 16.7 nM
IC50 [2]: 16.2 nM

SMILES: N#Cc1cc(-c2cc(NC(=O)C3CC3)ncn2)ccc1O[C@H]1CCN(C(=O)[C@@H](O)CO)CC1(F)F [Example 22, N-(6-(3-cyano-4-(((S)-1-((S)-2,3-dihydroxypropanoyl)-3,3-difluoropiperidin-4-yl)oxy)phenyl)pyrimidin-4-yl)cyclopropanecarboxamide]
IC50 [1]: 2.8 nM
IC50 [2]: 9 nM

SMILES: N#Cc1cc(-c2ccnc(NC(=O)C3CC3)c2)ccc1N1CCCC1 [Example 5, N-(4-(3-cyano-4-(pyrrolidin-1-yl)phenyl)pyridin-2-yl)cyclopropanecarboxamide]
IC50 [1]: 13.9 nM
IC50 [2]: 68.2 nM

SMILES: CC1(C)C[C@@H]1C(=O)Nc1cc(-c2ccc(O[C@H]3CCN(C(=O)CO)C[C@H]3F)c(C#N)c2)ccn1 [Example 69, (S)—N-(4-(3-Cyano-4-(((3R,4S)-3-fluoro-1-(2-hydroxyacetyl)piperidin-4-yl)oxy)phenyl)pyridin-2-yl)-2,2-dimethylcyclopropane-1-carboxamide]
IC50 [1]: 43.9 nM
IC50 [2]: 133 nM

SMILES: N#Cc1cc(-c2cc(NC(=O)C3CC3)ncn2)ccc1O[C@H]1CCNCC1(F)F [Example 25, (S)—N-(6-(3-cyano-4-((3,3-difluoropiperidin-4-yl)oxy)phenyl)pyrimidin-4-yl)cyclopropanecarboxamide]
IC50 [1]: 93.3 nM
IC50 [2]: 297 nM

SMILES: C[C@H](O)C(=O)N1CC[C@H](Oc2ccc(-c3ccnc(NC(=O)C4CC4)c3)cc2C#N)[C@H](F)C1 [Example 9, N-(4-(3-cyano-4-(((3R,4S)-3-fluoro-1-((S)-2-hydroxypropanoyl)piperidin-4-yl)oxy)phenyl)pyridin-2-yl)cyclopropanecarboxamide]
IC50 [1]: 15.2 nM
IC50 [2]: 46.4 nM

SMILES: C[n+]1ccccc1N1CC[C@H](Oc2ccc(-c3cc(NC(=O)C4CC4)ncn3)cc2C#N)[C@H](F)C1 [Example 31, 2-((3R,4S)-4-(2-cyano-4-(6-(cyclopropanecarboxamido)pyrimidin-4-yl)phenoxy)-3-fluoropiperidin-1-yl)-1-methylpyridin-1-ium 2,2,2-trifluoroacetate]
IC50 [1]: > 1000 nM
IC50 [2]: > 1000 nM

SMILES: N#Cc1cc(-c2ccnc(NC(=O)C3CC3)c2)ccc1O[C@H]1CCN(C(=O)CCO)CC1(F)F [Example 15, (S)—N-(4-(3-cyano-4-((3,3-difluoro-1-(3-hydroxypropanoyl)piperidin-4-yl)oxy)phenyl)pyridin-2-yl)cyclopropanecarboxamide]
IC50 [1]: 23.2 nM
IC50 [2]: 84.2 nM

SMILES: N#Cc1cc(-c2ccnc(NC(=O)C3CC3)c2)ccc1OC1CCOCC1 [Example 2, N-(4-(3-cyano-4-((tetrahydro-2H-pyran-4-yl)oxy)phenyl)pyridin-2-yl)cyclopropanecarboxamide]
IC50 [1]: 28.1 nM
IC50 [2]: 115 nM

Other lines, results leading:

IC50 [1]: 5.7 nM
IC50 [2]: 14.3 nM
SMILES: Cn1ccc([C@H]2C[C@@H]2C(=O)Nc2cc(-c3ccc(O[C@H]4CCN(C(=O)CO)CC4(F)F)c(C#N)c3)ccn2)n1 [Example 103, (1S,2S)—N-(4-(3-cyano-4-(((S)-3,3-difluoro-1-(2-hydroxyacetyl)piperidin-4-yl)oxy)phenyl)pyridin-2-yl)-2-(1-methyl-1H-pyrazol-3-yl)cyclopropane-1-carboxamide]

IC50 [1]: 9.4 nM
IC50 [2]: 53.3 nM
SMILES: N#Cc1cc(-c2cc(NC(=O)C3CC3)ncn2)ccc1O[C@H]1CCN(C(=O)[C@@H]2CCC(=O)N2)CC1(F)F [Example 152, N-(6-(3-cyano-4-(((S)-3,3-difluoro-1-((S)-5-oxopyrrolidine-2-carbonyl)piperidin-4-yl)oxy)phenyl)pyrimidin-4-yl)cyclopropanecarboxamide]

IC50 [1]: 36.6 nM
IC50 [2]: 41 nM
SMILES: Cc1nnc([C@@H]2C[C@H]2C(=O)Nc2cc(-c3ccc(O[C@H]4CCN(C(=O)CO)C[C@H]4F)c(C#N)c3)ccn2)o1 [Example 156, Trans-N-(4-(3-cyano-4-(((3R,4S)-3-fluoro-1-(2-hydroxyacetyl)piperidin-4-yl)oxy)phenyl)pyridin-2-yl)-2-(5-methyl-1,3,4-oxadiazol-2-yl)cyclopropane-1-carboxamide]

IC50 [1]: 5.7 nM
IC50 [2]: 14 nM
SMILES: Cn1cc([C@H]2C[C@@H]2C(=O)Nc2cc(-c3ccc(O[C@H]4CCN(C(=O)CO)C[C@H]4F)c(C#N)c3)ccn2)cn1 [Example 126, (1S,2S)—N-(4-(3-Cyano-4-(((3R,4S)-3-fluoro-1-(2-hydroxyacetyl)piperidin-4-yl)oxy)phenyl)pyridin-2-yl)-2-(1-methyl-1H-pyrazol-4-yl)cyclopropane-1-carboxamide]

IC50 [1]: 20.3 nM
IC50 [2]: 130 nM
SMILES: N#Cc1cc(-c2ccnc(NC(=O)[C@H]3C[C@@H]3c3cccnc3)c2)ccc1OC1CCOCC1 (relative stereo) [Example 100, (1,2-trans)-N-(4-(3-cyano-4-((tetrahydro-2H-pyran-4-yl)oxy)phenyl)pyridin-2-yl)-2-(pyridin-3-yl)cyclopropane-1-carboxamide]

IC50 [1]: 333 nM
IC50 [2]: 135 nM
SMILES: N#Cc1cc(-c2ccnc(NC(=O)[C@@H]3CC3C(=O)O)c2)ccc1O[C@H]1CCN(C(=O)CO)C[C@H]1F (stereo in doubt) [Example 84, (1,2-trans)-2-((4-(3-cyano-4-(((3R,4S)-3-fluoro-1-(2-hydroxyacetyl)piperidin-4-yl)oxy)phenyl)pyridin-2-yl)carbamoyl)cyclopropane-1-carboxylic acid]

IC50 [1]: 41.5 nM
IC50 [2]: 387 nM
SMILES: N#Cc1cc(-c2cc(NC(=O)C3CC3)ncn2)ccc1O[C@H]1CCN(C(=O)CCO)CC1(F)F [Example 154, (S)—N-(6-(3-cyano-4-((3,3-difluoro-1-(3-hydroxypropanoyl)piperidin-4-yl)oxy)phenyl)pyrimidin-4-yl)cyclopropanecarboxamide]

IC50 [1]: > 1000 nM
IC50 [2]: > 1000 nM
SMILES: N#Cc1cc(-c2ccnc(NC(=O)C3CC3)c2)ccc1CC1CCOCC1 [Example 98, N-(4-(3-cyano-4-((tetrahydro-2H-pyran-4-yl)methyl)phenyl)pyridin-2-yl)cyclopropanecarboxamide]

IC50 [1]: 29.1 nM
IC50 [2]: 181 nM
SMILES: Cn1cc([C@@H]2C[C@H]2C(=O)Nc2cc(-c3ccc(OC4CCOCC4)c(C#N)c3)ccn2)cn1 (relative stereo) [Example 120, (1,2-Trans)-N-(4-(3-cyano-4-((tetrahydro-2H-pyran-4-yl)oxy)phenyl)pyridin-2-yl)-2-(1-methyl-1H-pyrazol-4-yl)cyclopropane-1-carboxamide]

IC50 [1]: > 1000 nM
IC50 [2]: > 1000 nM
SMILES: N#Cc1cc(-c2cc(NC(=O)C3CC3)ncn2)ccc1F [Example 105, N-(6-(3-cyano-4-fluorophenyl)pyrimidin-4-yl)cyclopropanecarboxamide]

IC50 [1]: 8.1 nM
IC50 [2]: 7.1 nM
SMILES: N#Cc1cc(-c2ccnc(NC(=O)[C@@H]3C[C@H]3c3ccc(C4CC4)nc3)c2)ccc1O[C@H]1CCN(C(=O)CO)CC1(F)F [Example 115, (1R,2R)—N-(4-(3-cyano-4-(((S)-3,3-difluoro-1-(2-hydroxyacetyl)piperidin-4-yl)oxy)phenyl)pyridin-2-yl)-2-(6-cyclopropylpyridin-3-yl)cyclopropane-1-carboxamide]
